According to patent US20250288583A1, “Treatment of Mucus Hypersecretion” (priority 2024, published 2025):

Legend:
nasal mucus secretion = assay: Range-finding study of CPS-125, Up-Down method, nasal mucus secretion as endpoint; type: in vivo, human
Description: The recognition that inhibition of mucus hypersecretion might be a valuable and unique pharmacological attribute of TRPM8 agonists prompted the applicant to re-examine such compounds in his inventory. CPS-125 was described by Wei in U.S. Pat. No. 7,417,048 (August 2008), and its structure is in Table 10. This molecule incorporates a sulfamoyl group to increase water solubility and is sulfadiazine coupled to p-menthanecarboxamide. In a range-finding study, CPS-125 was suspended in 1% Ethanol/2% Polysorbate 80/saline and titrated using the Up-Down method of Dixon (Annu. Rev. Pharmacol. Toxicol. 20:441-462.1980) with nasal mucus secretion as the endpoint. The effective concentration for reducing secretions by +80% was 8 mg/ml of CPS-125. […] Such heterocyclic structures include pyrrole, furan, oxane, thiophene, thioxazole, and oxazole derivatives.
CPS-125 was active when administered as drops or in a manually activated spray. The nose is pinched and released after instilling 0.3 to 0.5 mL into the nostrils. After pinch and release, the reflex sniff or snort enhances delivery of the drops to the ostiomeatal complex. Using a power-assisted nebulizer enhances delivery of CPS-125. CPS-125's molecular weight of 416 Daltons is the highest of the tested compounds. Normally, large lipophilic molecules are not expected to penetrate secretions to reach target. Apparently, the sulfamoyl group confers the qualities of penetration, stability, and retention to make it a viable lead candidate for inhibition of mucus hypersecretion.

philtrum skin = assay: Cooling duration bioassay on philtrum skin; type: in vivo, human
Description: (§1) FIG. 1. Comparison of cooling duration of various p-menthanecarboxamide analogs on philtrum skin versus ocular margins. The philtrum skin is keratinized, but the ocular margins are not. The test substances numbered 1 to 11 are: D-Ala-OiPr, Gly-OiPr, D-Ala-OEt, D-Ala-OMe, D-Ala-GlynPr, GlynPr, D-Ala-OnBu, GlynBu, GlyOEt, L-Ala-OEt, and N-Me-D-Ala-OEt, respectively. Two outliers (1 and 2) were identified as preferred embodiments because they preferentially cool the ocular margins. The nasal cavity surfaces like the ocular margins are not keratinized.
(§2) Cooling agents have been assayed in various ways depending on intended use. For example, for the skin the test substance can be applied on philtrum skin, using descriptions of coolness on a scale of 0 to 3. For the ocular surface, the active ingredient can be applied to the closed eyelids using a wipe. In the oral cavity, drug applications are on the posterior dorsal surface of the tongue. For the oropharyngeal surface, the cooling agent may be applied as an orally disintegrating tablet. The ability of a cooling agent to antagonize a noxious stimuli may also be tested, using nociception from citric acid or chili pepper sauce. Responses are usually measured using a Visual Analog Scale with a numerical rating. For nasal responses, however, such procedures have not been standardized. Some endpoints to consider are open and comfortable breathing, the presence or absence of sniffles, and the secretion of phlegm.

ocular margins = assay: Cooling duration bioassay on eyelids/ocular margins; type: in vivo, human; settings: for Eyelids/Ocular Surface: Table 6, cooling duration, non-keratinized; for Ocular Surface: Table 7, Gly esters
Description: as §1, §2

oral cavity = assay: Chili-pepper sauce test (oral cavity); type: in vivo, human; design: scale not given here; settings: Table 6; grades 0, +, ++ without key
Description: as §2

hTRPM8 channel = molecular target: T1, hTRPM8 channel (Homo sapiens, UniProt Q7Z2W7); assay: TRPM8 receptor assay, calcium entry (Fluo-8, FLIPR) in transfected CHO cells; type: cell-based; settings: for Potency Relative to L-menthol: ratio of TRPM8 EC50 values, menthol = 1.0
T1 construct: host or cells: CHO cells
Description: FIG. 4. Agonist activities of TRPM8 analogs. […] The relative fluorescence (RF) unit on the ordinate represents calcium entry into transfected cells. […] The structures of these compounds are in Table 4.
The applicant has synthesized and examined a series of p-menthanecarboxamides conjugated to amino acid esters. […] This class of molecules is called N-alkylcarbonyl-amino acid esters. GlyOiPr is a p-menthanecarboxamide conjugate of glycine isopropyl (iPr) ester. It is similar in structure to WS-5, a cooling agent used as a food additive. WS-5 is the p-menthane-glycine ethyl (Et) ester, or GlyOEt. […] These in vitro effects were measured in CHO cells transfected with the hTRPM8 channel. Receptor activity was quantified using a Fluo-8 calcium kit and a Fluorescence Imaging Plate Reader ([…]™).

oropharyngeal surface = assay: Bioassay on oropharyngeal surface; type: in vivo, human; settings: Table 7; grades 0, ++ without key
Description: as §2

ostiomeatal complex = assay: Case studies: nebulized cooling agent in subjects with rhinitis and rhinosinusitis; type: in vivo, human; settings: NasoNeb delivery in subjects with rhinosinusitis
Description: Eight subjects with rhinitis and rhinosinusitis volunteered to test cooling agents delivered with the NasoNeb® nebulizer (FIG. 3). The results were clear, robust, and evident. No statistical analysis was necessary. In a 3 to 5-day course of nebulization t.i.d., all subjects reported the ability to manage and control stuffed-up breathing in their activities. All reported comfortable sleep. The sounds of sniffling and congestion of the nose (“sniffles”), snorting, or gurgling were still present, but to a lesser degree. The subject felt it was easier to blow out liquids from the nasal cavity onto a tissue, and the volume and frequency of blowing decreased. Viscous yellow mucus was less in volume and density. The number of wipes deposited daily into a waste basket decreased by >50%. The subjects-were cheerful and enthusiastic because nasal discomfort was under control. As one subject remarked: “The stuffed-up nose problem is now history!” Severat of these cases are reported below as “Case Studies.”
The subject was given a NasoNeb® nebulizer (unavailable in China) and five individual bottles containing 15 mL of a 1% GlyOiPr solution (suspended in 2% Tween 80, 5% ethanol, and 92% water). They were shown how to load the NasoNeb canister with about 2 mL of liquid and activate the device for a 3-second dose into each nostril. The recommended dosage was three times a day, starting in the morning and at about 6-hour intervals, and for five days.
The subject agreed to using the NasoNeb nebulizer with a cooling agent. They were given a NasoNeb nebulizer and three bottles, each containing 15 ml of a 1% GlyOiPr solution (suspended in 2% Tween 80, 5% ethanol, and 92% water). They were shown how to load the NasoNeb canister with about 2 mL of liquid and activate the device for a 3-second dose into each nostril. The recommended dosage was three times a day, starting in the morning and at about 6-hour intervals, and for five days. After a 5-day trial, the subject noted a significant improvement in sleep and comfortable breathing. […] Their headaches were gone, and their appetite improved. They were advised to continue using the Nebulizer/coolant for another week and then on an as-needed basis. Their family has noticed that the subject has become less withdrawn, more engaging, and interested in their surroundings.
The subject volunteered for a trial with GlyOiPr. They were given a NasoNeb® machine and a plastic squeeze bottle containing 50 mL of GlyOiPr at 3 mg/mL suspended in 1% ethanol/2% polysorbate 80. They learned how to load the canister and activate the pump. Then, they were instructed to rinse their nose thoroughly first thing in the morning and then use the Nebulizer at 5 sec per nostril to deliver the solution. The procedure was to be repeated at 2 hours and 5 hours later to total three daily activations. The subject was interviewed after dosing for three days. They said breathing was much easier at night after the dosing, and they slept well. Nasal secretions were still present but less in volume. […] They were encouraged to use the Nebulizer as needed but not to exceed three daily doses. Three weeks after the start of the experiment, they reported that they were in complete control of their rhinitis. They would do a single dose at night before sleep and one in the morning when needed. They no longer felt congested, and the headaches were gone. The slimy phlegm in the nostrils was gone, and crusting was absent. Their nose felt clean. Their social life improved.
Their main complaint was episodes at night when they would wake up and not be able to breathe comfortably. Sleep apnea and lung disorders were ruled out, and the diagnosis was rhinosinusitis. This was confirmed by a computerized tomography scan and endoscopic examination by a qualified ENT specialist. They agreed to test the preferred embodiments GlyOnPr, GlyOiPr, D-Ala-OnPr, and D-Ala-OiPr systematically, one after the other.

nasal cavity = assay: Nebulizer screening of TRPM8 agonists for sensations in the nasal cavity; type: in vivo, human; settings: NasoNeb nebulizer, 3 to 5 sec per nostril
Method: Formulations for nebulization with NasoNeb® used a standard recipe of (Table 8): 1% of the active ingredient (1 to 10 mg/mL), 2% Tween 80 (Polysorbate 80), 1 to 5% ethanol, and made up to 100% with water. The mixture is centrifuged in a FlackTek, Inc., Speedmixer for at least 10 min at 3000 rpm. The Speedmixer spins the sample in 3 dimensions. The result is a white homogeneous liquid suspension with some of the solids now dissolved. For dosing, ˜2 to 3 mL is loaded into the canister of the nebulizer. The nebulizer nozzle tip is placed in the nostril and activated by pressing a button for 3 to 5 sec using a clock timer. […] For D-Ala-OiPr a 5-sec activation will deliver 2*0.73 mL*2 mg/ml, or a total dose of 3 mg per nose. The nasal cavity is relatively tolerant to exogenous agents with irritant properties, as many rinses are used for rhinitis and sinusitis. For some p-menthanecarboxamide analogs, a 2% (20 mg/mL) solution is possible and contemplated. An ideal agent reproduces a comfortable cooling or sensations of negative heat flux in the nasal cavity. […] Heat flux refers to the rate of heat transfer per unit area. The sinonasal cavity mucosa differs from philtrum skin and ocular margins in histology, so the choice of the right molecule must be made by experiment. The TRPM8 agonists were chosen for screening using a nebulizer for delivery. The NasoNeb system is powerful and effective for the OMC (FIG. 3). The delivery time per nostril in three to five seconds. […] These parameters were estimated in the initial trials: • Onset and offset of cooling sensations in the nasal cavity. • The intensity and quality of the cooling sensations in the nasal cavity. • Presence of effects such as sneezing or cough after dosing. • Degree of nasal stuffiness on a scale of 0 to 5. • Degree of rhinorrhea and phlegm in nasal secretions. • Questions regarding comfort and sleep at night.

TRPV1 = molecular target: T2, TRPV1 (Homo sapiens, UniProt Q8NER1); assay: TRPV1 specificity assay in transfected cells; type: cell-based; settings: FIG. 5; capsaicin positive control
T2 construct: expressed in transfected cells

[1] = Table 6, cooling duration, keratinized skin

T1 sequence (Q7Z2W7 whole entry): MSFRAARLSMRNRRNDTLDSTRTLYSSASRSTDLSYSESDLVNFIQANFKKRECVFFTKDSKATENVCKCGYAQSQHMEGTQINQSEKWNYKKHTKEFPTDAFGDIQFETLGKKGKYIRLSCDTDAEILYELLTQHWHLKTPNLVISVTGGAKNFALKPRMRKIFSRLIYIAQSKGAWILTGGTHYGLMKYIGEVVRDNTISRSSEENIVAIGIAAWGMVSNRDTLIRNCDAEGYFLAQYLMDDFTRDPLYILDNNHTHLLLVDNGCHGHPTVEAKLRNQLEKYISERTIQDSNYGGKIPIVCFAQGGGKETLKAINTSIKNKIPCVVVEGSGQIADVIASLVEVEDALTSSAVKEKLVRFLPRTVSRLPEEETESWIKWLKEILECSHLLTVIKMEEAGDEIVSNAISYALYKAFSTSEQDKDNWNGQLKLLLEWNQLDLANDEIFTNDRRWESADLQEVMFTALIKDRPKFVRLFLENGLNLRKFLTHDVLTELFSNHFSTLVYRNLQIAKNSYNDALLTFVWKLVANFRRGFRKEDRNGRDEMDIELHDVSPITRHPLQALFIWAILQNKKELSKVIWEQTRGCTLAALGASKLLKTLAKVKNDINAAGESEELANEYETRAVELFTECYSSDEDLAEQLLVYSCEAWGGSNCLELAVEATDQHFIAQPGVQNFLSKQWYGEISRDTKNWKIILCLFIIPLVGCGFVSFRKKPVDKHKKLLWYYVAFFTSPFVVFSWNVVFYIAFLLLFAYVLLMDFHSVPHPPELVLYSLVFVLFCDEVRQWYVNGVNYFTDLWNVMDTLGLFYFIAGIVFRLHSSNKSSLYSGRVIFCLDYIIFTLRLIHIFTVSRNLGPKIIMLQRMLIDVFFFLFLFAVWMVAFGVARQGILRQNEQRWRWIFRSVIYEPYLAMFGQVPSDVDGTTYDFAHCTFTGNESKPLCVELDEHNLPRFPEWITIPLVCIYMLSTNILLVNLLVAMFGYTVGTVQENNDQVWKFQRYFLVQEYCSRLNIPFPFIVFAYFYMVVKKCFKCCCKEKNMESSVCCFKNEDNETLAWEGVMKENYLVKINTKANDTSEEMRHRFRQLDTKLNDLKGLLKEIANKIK
T2 sequence (Q8NER1 whole entry, species assumed): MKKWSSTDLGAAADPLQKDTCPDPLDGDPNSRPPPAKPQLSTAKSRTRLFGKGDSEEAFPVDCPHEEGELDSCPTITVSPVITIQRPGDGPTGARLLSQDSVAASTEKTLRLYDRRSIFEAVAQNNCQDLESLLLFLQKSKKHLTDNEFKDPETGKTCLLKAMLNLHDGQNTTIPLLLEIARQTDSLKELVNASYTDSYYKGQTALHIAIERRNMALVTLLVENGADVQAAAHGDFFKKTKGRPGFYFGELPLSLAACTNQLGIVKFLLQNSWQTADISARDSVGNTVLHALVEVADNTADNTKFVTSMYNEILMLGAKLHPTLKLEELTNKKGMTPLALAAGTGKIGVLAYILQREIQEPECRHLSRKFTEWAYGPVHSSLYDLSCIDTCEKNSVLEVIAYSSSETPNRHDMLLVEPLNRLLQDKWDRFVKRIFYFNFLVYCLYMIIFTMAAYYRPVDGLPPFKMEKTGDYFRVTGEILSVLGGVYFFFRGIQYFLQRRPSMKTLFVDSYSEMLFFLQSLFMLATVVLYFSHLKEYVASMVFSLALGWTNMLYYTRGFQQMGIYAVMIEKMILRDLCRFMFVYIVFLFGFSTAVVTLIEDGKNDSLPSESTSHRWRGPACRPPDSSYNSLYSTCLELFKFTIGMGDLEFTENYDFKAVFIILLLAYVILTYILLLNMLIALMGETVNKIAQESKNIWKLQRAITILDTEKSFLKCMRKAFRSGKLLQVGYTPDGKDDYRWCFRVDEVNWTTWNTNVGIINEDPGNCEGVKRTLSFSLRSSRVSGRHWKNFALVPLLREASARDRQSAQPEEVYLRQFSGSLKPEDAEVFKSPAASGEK

CC(C)[C@@H]1CC[C@@H](C)C[C@H]1C(=O)Nc1ccc(S(=O)(=O)Nc2ncccn2)cc1 [CPS-125, (1R,2S,5R)-2-Isopropyl-5-methyl-cyclohexanecarboxylic acid [4-(pyrimidin-2-ylsulfamoyl)-phenyl]-amide]
Activity when administered as drops or in a manually activated spray (nasal mucus secretion; 0.3 to 0.5 mL into the nostrils, pinch and release): active | Duration of action among the 25+ compounds tested (nasal mucus secretion; in vivo): longest duration of action | Effective concentration for reducing secretions by +80% (nasal mucus secretion; suspended in 1% Ethanol/2% Polysorbate 80/saline, Up-Down method of Dixon): 8 mg/mL

CCOC(=O)CNC(=O)[C@@H]1C[C@H](C)CC[C@H]1C(C)C [GlyOEt, [((1R,2S,5R)-2-isopropyl-5-methyl-cyclohexanecarbonyl)-amino]-acetic acid ethyl ester, reference compound]
Philtrum Skin (philtrum skin; [1]): 24 min | Philtrum Skin (philtrum skin; Table 7, Gly esters): 24 min | Eyelids/Ocular Surface (ocular margins): 15 min | Ocular Surface (ocular margins): 15 min | Increase of cooling on raising the concentration (ocular margins; from 1 mg/ml to 2 mg/ml): 15 min | Increase of cooling on raising the concentration (ocular margins; from 1 mg/ml to 5 mg/ml): 22 min | Chili-Pepper Sauce Test (oral cavity): 0 | Potency Relative to L-menthol (hTRPM8 channel): 10.6 | Oropharyngeal Surface (oropharyngeal surface): 0

CCCCOC(=O)CNC(=O)[C@@H]1C[C@H](C)CC[C@H]1C(C)C [GlyOnBu, [((1R,2S,5R)-2-isopropyl-5-methyl-cyclohexanecarbonyl)-amino]-acetic acid n-butyl ester]
Philtrum Skin (philtrum skin; [1]): 38 min | Philtrum Skin (philtrum skin; Table 7, Gly esters): 38 min | Eyelids/Ocular Surface (ocular margins): 35 min | Ocular Surface (ocular margins): 35 min | Chili-Pepper Sauce Test (oral cavity): 0 | EC50 (hTRPM8 channel; CHO cells transfected with hTRPM8, Fluo-8 calcium kit, FLIPR): 1360 nM | Potency Relative to L-menthol (hTRPM8 channel): 2.8 | Oropharyngeal Surface (oropharyngeal surface): 0

CCCOC(=O)CNC(=O)[C@@H]1C[C@H](C)CC[C@H]1C(C)C [GlyOnPr, [((1R,2S,5R)-2-isopropyl-5-methyl-cyclohexanecarbonyl)-amino]-acetic acid n-propyl ester]
Philtrum Skin (philtrum skin; [1]): 42 min | Philtrum Skin (philtrum skin; Table 7, Gly esters): 42 min | Eyelids/Ocular Surface (ocular margins): 54 min | Ocular Surface (ocular margins): 54 min | Chili-Pepper Sauce Test (oral cavity): 0 | Relief of stuffiness and breathing (ostiomeatal complex): provided relief | Sensory effects after delivery into the nasal cavity (nasal cavity): About the same duration of action as GlyOiPr, but less refreshing. | Oropharyngeal Surface (oropharyngeal surface): 0

COc1cc(CNC(=O)CCCC/C=C/C(C)C)ccc1O [capsaicin, reference compound]
Response of cells transfected with TRPV1 (TRPV1): respond
